From the supplement of paper PMC10307832

Legend:
Test in all cases: relative viability (nuclei count vs DMSO), 5 days (fraction); higher = more cells survive
Everolimus + Navitoclax = compound: CO[C@H]1C[C@@H]2CC[C@@H](C)[C@@](O)(O2)C(=O)C(=O)N2CCCC[C@H]2C(=O)O[C@H]([C@H](C)C[C@@H]2CC[C@@H](OCCO)[C@H](OC)C2)CC(=O)[C@H](C)/C=C(\C)[C@@H](O)[C@@H](OC)C(=O)[C@H](C)C[C@H](C)/C=C/C=C/C=C/1C [Everolimus] + CC1(C)CCC(c2ccc(Cl)cc2)=C(CN2CCN(c3ccc(C(=O)NS(=O)(=O)c4ccc(N[C@H](CCN5CCOCC5)CSc5ccccc5)c(S(=O)(=O)C(F)(F)F)c4)cc3)CC2)C1 [Navitoclax] (partner 0.5 µM)
Outline: (§1)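 A single step with final 0.05% Triton X-100, 1% formaldehyde and 1 ug/ml Hoechst fixed the cells and stained nuclei 5 days after treatment. Lung cancer cell lines in 1536-well plates had been treated by pin tool the day after seeding with one drug alone or a fixed anchor-drug dose plus five library-drug doses (not always all listed) in √10 steps, and nuclei were counted on 4× images. Relative viability is the ratio of nuclei in treated wells to nuclei in vehicle wells, taken as the median of duplicate plates.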

Everolimus + Linsitinib = compound: CO[C@H]1C[C@@H]2CC[C@@H](C)[C@@](O)(O2)C(=O)C(=O)N2CCCC[C@H]2C(=O)O[C@H]([C@H](C)C[C@@H]2CC[C@@H](OCCO)[C@H](OC)C2)CC(=O)[C@H](C)/C=C(\C)[C@@H](O)[C@@H](OC)C(=O)[C@H](C)C[C@H](C)/C=C/C=C/C=C/1C [Everolimus] + C[C@]1(O)C[C@@H](c2nc(-c3ccc4ccc(-c5ccccc5)nc4c3)c3c(N)nccn32)C1 [Linsitinib] (partner 1 µM)
Outline: as §1

Everolimus + Alpelisib = compound: CO[C@H]1C[C@@H]2CC[C@@H](C)[C@@](O)(O2)C(=O)C(=O)N2CCCC[C@H]2C(=O)O[C@H]([C@H](C)C[C@@H]2CC[C@@H](OCCO)[C@H](OC)C2)CC(=O)[C@H](C)/C=C(\C)[C@@H](O)[C@@H](OC)C(=O)[C@H](C)C[C@H](C)/C=C/C=C/C=C/1C [Everolimus] + Cc1nc(NC(=O)N2CCC[C@H]2C(N)=O)sc1-c1ccnc(C(C)(C)C(F)(F)F)c1 [Alpelisib] (partner 2 µM)
Outline: as §1

Everolimus + Vorinostat = compound: CO[C@H]1C[C@@H]2CC[C@@H](C)[C@@](O)(O2)C(=O)C(=O)N2CCCC[C@H]2C(=O)O[C@H]([C@H](C)C[C@@H]2CC[C@@H](OCCO)[C@H](OC)C2)CC(=O)[C@H](C)/C=C(\C)[C@@H](O)[C@@H](OC)C(=O)[C@H](C)C[C@H](C)/C=C/C=C/C=C/1C [Everolimus] + O=C(CCCCCCC(=O)Nc1ccccc1)NO [Vorinostat] (partner 1 µM)
Outline: as §1

Row | Cell Line | relative viability (Everolimus + Navitoclax; first compound 0.01 µM) | relative viability (Everolimus + Navitoclax; first compound 0.03162 µM) | relative viability (Everolimus + Navitoclax; first compound 0.1 µM) | relative viability (Everolimus + Navitoclax; first compound 0.3162 µM) | relative viability (Everolimus + Navitoclax; first compound 1 µM) | relative viability (Everolimus + Linsitinib; first compound 0.01 µM) | relative viability (Everolimus + Linsitinib; first compound 0.03162 µM) | relative viability (Everolimus + Linsitinib; first compound 0.1 µM) | relative viability (Everolimus + Linsitinib; first compound 0.3162 µM) | relative viability (Everolimus + Linsitinib; first compound 1 µM) | relative viability (Everolimus + Alpelisib; first compound 0.01 µM) | relative viability (Everolimus + Alpelisib; first compound 0.03162 µM) | relative viability (Everolimus + Alpelisib; first compound 0.1 µM) | relative viability (Everolimus + Alpelisib; first compound 0.3162 µM) | relative viability (Everolimus + Alpelisib; first compound 1 µM) | relative viability (Everolimus + Vorinostat; first compound 0.01 µM) | relative viability (Everolimus + Vorinostat; first compound 0.03162 µM) | relative viability (Everolimus + Vorinostat; first compound 0.1 µM) | relative viability (Everolimus + Vorinostat; first compound 0.3162 µM) | relative viability (Everolimus + Vorinostat; first compound 1 µM)
1 | COR-L 105 | 0.574 | 0.636 | 0.616 | 0.652 | 0.57 | 0.743 | 0.604 | 0.585 | 0.686 | 0.504 | 0.585 | 0.526 | 0.489 | 0.567 | 0.518 | 0.58 | 0.465 | 0.535 | 0.572 | 0.59
2 | NCI-H441 | 0.658 | 0.577 | 0.79 | 0.73 | 0.482 | 0.504 | 0.302 | 0.289 | 0.402 | 0.401 | 0.515 | 0.575 | 0.582 | 0.564 | 0.461 | 0.701 | 0.789 | 0.55 | 0.669 | 0.589
3 | NCI-H2126 | 0.515 | 0.455 | 0.4 | 0.492 | 0.485 | 0.463 | 0.448 | 0.393 | 0.425 | 0.457 | 0.509 | 0.466 | 0.435 | 0.473 | 0.458 | 0.546 | 0.482 | 0.407 | 0.553 | 0.497
4 | HCC-44 | 0.941 | 0.88 | 0.819 | 0.904 | 0.903 | 0.467 | 0.545 | 0.313 | 0.349 | 0.411 | 0.616 | 0.597 | 0.44 | 0.511 | 0.44 | 1.17 | 1.23 | 1.03 | 1.14 | 1.05
5 | NCI-H460 | 0.998 | 1.11 | 0.704 | 1.1 | 0.779 | 0.42 | 0.45 | 0.365 | 0.301 | 0.381 | 0.22 | 0.298 | 0.199 | 0.271 | 0.168 | 0.621 | 0.617 | 0.486 | 0.625 | 0.372
6 | SK-LU-1 | 0.529 | 0.48 | 0.494 | 0.568 | 0.475 | 0.501 | 0.66 | 0.552 | 0.614 | 0.631 | 0.46 | 0.471 | 0.565 | 0.555 | 0.661 | 0.52 | 0.52 | 0.587 | 0.538 | 0.527
7 | NCI-H322M | 1.21 | 1.05 | 0.905 | 0.902 | 0.79 | 0.87 | 0.695 | 0.683 | 0.739 | 0.645 | 0.686 | 0.577 | 0.578 | 0.585 | 0.58 | 0.77 | 0.601 | 0.712 | 0.654 | 0.713
